The results in this text go back to patent US20220117949A1, “LTA4H INHIBITORS FOR THE TREATMENT OF HIDRADENITIS SUPPURATIVA” (NOVARTIS AG, priority 2019, published 2022).

In general, Tmax refers to the time from dosing to the highest level. As a reminder, the half-life is the time needed for the level to fall by half in the phase considered. Read a low half-life as rapid decline.

In series [1] the test system is LTB4 biosynthesis in lesional skin biopsies of HS patients. The series can be described thus: LTB4 biosynthesis in ionophore-stimulated skin biopsies of HS patients (LC-MS/MS). Format: cell-based, human. The note with it: 5 uM inhibitor 2 h, then 2 h 10 ug/mL ionophore. How it is done: Frozen human skin biopsies from healthy skin or discard HS lesions (on average 500 mg) were pulverized using mechanical force (Covaris) and homogenized in 4 mL of methanol containing deuterium labelled internal standards (ISTDs) using a bead-beating device (2×20 sec cycles of 5000 rpm, Precellys) maintained at low temperature. Then, samples were kept at −20° C./45 min to allow for protein precipitation and centrifuged at 13000 rpm for 10 min at 4° C. The supernatants were then evaporated (Genevac) until complete dryness and reconstituted in 70 μL of methanol:water (50%/50%; v/v) followed by injection in the LC-MS/MS system. Calibration curves were freshly prepared by serial dilution of pure standards in methanol:water (50%/50%, v/v) containing ISTDs and quantitation was done by comparing metabolite to ISTD peak area ratios in samples to that of calibrators.
Two analytical platforms were employed for data acquision depending on instrument availability: 1) Waters H class UPLC system coupled to a Waters XevoTQS triple quadrupole mass (QQQ) spectrometer and 2) a Dionex Ultimate 3000RS UPLC coupled to a Sciex6500+ QQQ. Separation of lipids was achieved using reverse-phase columns ACQUITY UPLC BEH C18 1.7 μm, 2.1×50 mm and CORTECS UPLC C18 1.6 μm, 2.1×50 mm heated at 40° C., respectively. The flow rate was set to 0.180 mL/min and the mobile phase consisted of water-acetic acid (99.99/0.01; v/v) (A) and methanol-acetonitrile-acetic acid (B) (50/50/0.01; v/v/v). The eluent gradient was maintained at 45% of B for 2 min, follow by 45%-65% of B during 2-16 min, from 65%-100% during 16-19 min and 100% of B from 19-22 min. From 23-30 min the column was re-equilibrated with initial conditions. Ionization was performed using an ESI source operated in negative ion mode. Fragmentation was tuned for each compound individually.
. Skin biopsies were then harvested, lipids extracted and analyzed for generation of LTB4 by LC-MS/MS as described above. Stimulated skin biopsies of HS lesions generated a large amount of the lipid mediator LTB4. […]. (FIGS. 10 and 11)
Lesional skin biopsies of HS patients were left untreated or fully stimulated with ionophore to induce LTB4 biosynthesis in the presence or absence of a LTA4H inhibitor
LTB4 quantities are given in fmol/mg tissue. Shown are representative results obtained with one donor per compound out of several tested.

Series [2] is described as follows: First in human trial (SAD/MAD): safety and tolerability in healthy subjects. How it is done:
(§1) The study consisted of a part 1, single ascending dose (SAD) and a part 2 multiple ascending dose (MAD).
(§2) Part 1 was a randomized, subject-blinded and Investigator-partial-blinded, placebo-controlled, single ascending oral dose study.
(§3) Cohort 1: multiple once daily (qd) oral dose of 5 mg or matching placebo Cohort 2: multiple once daily (qd) oral dose of 15 mg or matching placebo Cohort 3: multiple oral daily dose of 20 mg or matching placebo administered twice daily (bid) Cohort 4: multiple oral daily dose of 40 mg or matching placebo administered twice daily (bid) Cohort 5: multiple oral daily dose of 80 mg or matching placebo administered twice daily (bid) Part 2 Multiple Ascending Dose Design (qd)—Overview of the Study Part 2 Multiple Ascending Dose Design (Bid)—Overview of the Study

Series [3] can be described thus: First in human trial Part 1 (SAD): plasma pharmacokinetics.
From the text: as §1, §2

Series [4] is described as follows: First in human trial Part 2 (MAD): plasma pharmacokinetics. How it is done: as §1, §3
The nature of a further series: clinical. The note with it: for mean concentration in blister fluid: pre-dose on Day 9. The source says: In parts 1 and 2 of the clinical study (SAD and MAD), skin blisters were induced on the arm of subjects in selected cohorts.
(§4) Blister fluid samples were collected at Day 1 pre-dose and Day 2 pre-dose in SAD cohort 4 as well as Day 1 pre-dose and Day 9 predose in MAD cohort 2-5.

In series [5] the test system is LTB4 in human skin blister fluids. The series can be described thus: LTB4 in cantharidin induced skin blister fluid (FIH). Format: in vivo. The note with it: 40 mg daily dose (20 mg BID). How it is done: In parts 1 and 2 of the clinical study (SAD and MAD), skin blisters were induced on the arm of subjects in selected cohorts. For this 10 mm diameter filter paper discs humected with a solution of cantharidin (such as cantharone) were applied on the arm of the subject, inducing an epidermal blister, and the blister fluid was collected approximately 24 hours (+/−1 hr) after the application.
as §4
Blister fluid samples were received frozen on dry ice and stored at −70° C. or below until analysis. On the day of analysis, samples were taken out of the freezer and immediately extracted after Thawing.
90 μL of blister fluid (sample or QC sample) was enriched with 5 μL of internal standard solution IS-L-2 (deuterated Leukotrienes and lipoxin at 50 ng/mL) and vortexed in a micro centrifuge tube. 90 μL of methanol with 0.1% formic acid was added. This was followed by 5 minutes vortex mixing and 10 minutes sonication on ice. The samples were incubated at −20° C. in a freezer for 40 minutes. This was followed by centrifugation at 16,000 rpm (27,500×g) at 4° C. for 20 minutes. 160 μL of the supernatant was transferred onto Millipore 5 kDa MWCO filters. MWCO filters have previously been cleaned by centrifuging 500 μL methanol/water 1/1 thru the filters. […]

Series [6] has as its system Leukotriene B4 (LTB4) in blood. The series can be described thus: Leukotriene B4 (LTB4) in human plasma of ex vivo stimulated whole blood (FIH PD biomarker, LC-MS/MS).
Method: Therefore, LTB4 concentrations were determined in plasma of ex-vivo stimulated whole blood by a LC-MS/MS method.
Ex-vivo stimulation was performed at the clinical site according to the following procedure: Whole blood (500 μL) were stimulated for 30 min using Calcium Ionophore A23187.
Human plasma was processed with organic precipitation followed by separation by reverse phase high performance liquid chromatography with tandem mass spectrometric detection.
AB Sciex QTrap 5500 MS/MS Turbo Spray Ion Drive negative ion mode.
Sample from each subject and time point was prepared and analyzed in three aliquots. Aliquot one and two contained plasma from ex-vivo stimulated whole blood, while aliquot three as negative control contained plasma from non-stimulated whole blood.
LTB4 concentration data were calculated as mean of concentration of aliquot one and two. Concentration of aliquot three was not be included in the calculation. The change from baseline and percent inhibition (percent of baseline) for each biomarker was calculated. Baseline was the mean of the Baseline and Day 1, −1 h measurements.
Setting [7] is: 5 mg qd to 80 mg bid (16-fold per dosing interval).

Take `N[C@@H](CC(=O)O)Cn1nnc(-c2ccc(Oc3ccc(Cl)cc3)cc2)n1` [compound of embodiment 3D, (S)-3-amino-4-(5-(4-(4-chlorophenoxy)-phenyl)-2H-tetrazol-2-yl)butanoic acid]: the “LTB4 generation by stimulated skin biopsies of HS lesions” value (shortened to “LTB4 generation”) is on record as “almost no LTB4” in series [1] and “suppresses” in series [1] (listed as Compound of embodiment 3D).

Take `N[C@@H](CC(=O)O)Cn1nnc(-c2ccc(Oc3ncc(Cl)cc3F)cc2)n1` [compound of example 1, (S)-3-amino-4-(5-(4-((5-chloro-3-fluoropyridin-2-yl)oxy)phenyl)-2H-tetrazol-2-yl)butanoic acid]: the “LTB4 generation” value in series [1] is “almost no LTB4”. The “LTB4 generation” value in series [1] (listed as Compound of Example 1) is recorded as “suppresses”. Also, the “findings in physical exam, vital signs or ECGs related to compound” value in series [2] (SAD and MAD, healthy subjects) was “No significant findings”. Besides, the maximal tolerated dose entry in series [2] (SAD up to 200 mg total daily dose, MAD up to 80 mg BID for 12 days) is “no maximal tolerated dose was established”. The “adverse events leading to study discontinuation” value in series [2] (SAD up to 2 x 100 mg, MAD up to 80 mg BID for 12 days, healthy subjects) was “No adverse events led to study discontinuation”. The tolerability result in series [2] (doses up to 80 mg bid (160 mg daily dose) over 12 days, healthy subjects) is reported as “well tolerated”. Besides, in series [2] (one SAD 5 mg, two MAD 80 mg BID, asymptomatic, transient), the “treated subjects with increases in lipase” value is on record as “Three”. Also, in series [2] (the three subjects with lipase elevations, mild), the “amylase increase accompanying lipase increase” value is at most 1.5 ULN. In addition, the “dose proportionality of AUClast over the whole dose range” value in series [3] (5 mg to 2 times 100 mg) is recorded as “demonstrated”. In series [3] (40-fold increase in daily dose (5 mg to 100 mg bid)), the “AUC0-24 h increase with dose” value was 75 fold. Also, in series [3] (SAD), the “increase in dose over which AUC0-24 h can be considered dose proportional” value is reported as at most 2.57 fold and the “increase in dose over which Cmax can be considered dose proportional” value is “up to 4.50 fold”. In addition, the “Cmax increase with dose” value in series [3] (dose increase from 5 to 100 mg (20-fold)) was found to be 21.7 fold. In series [3] (human, in vivo, po), the Tmax lay in the range of 1 to 1.5 h and the half-life was in the range of 10.2 to 21.4 days. In series [4] (setting [7]), the “AUC on Day 12 (AUC0-12 h,ss bid; AUC0-24 h,ss qd) increase with dose” value stood at 20.9 fold and the “Cmax on Day 12 increase with dose” value was found to be 17.9 fold. Moreover, the “time to reach steady state exposure” value in series [4] (BID oral dosing, fed state) was in the range of 3 to 4 days. In addition, in series [4] (MAD), the “increase in dose over which AUCtau can be considered dose proportional” value is on record as at most 6.29 fold and the “increase in dose over which Cmax,ss can be considered dose proportional” value is reported as “up to 2.12 fold”. Besides, in series [4] (all higher doses (above 5 mg qd)), the “accumulation to steady state” value is recorded as at most 1.4 fold. For the same molecule, the “mean Racc, day 1” value in series [4] (day 1 of the bid regimen) is listed as 1.09-1.29. For the same molecule, the “mean accumulation to steady state” value in series [4] (lowest dose of 5 mg qd) was 2.1 fold. Further, the “time at which steady state is achieved” value in series [4] (morning pre-dose concentrations, MAD) was around 3 days. In addition, the “dose proportionality criteria for AUCtau” value in series [4] (steady state, 5 mg qd to 40 mg bid) is on record as “met”. In addition, the “mean concentration in blister fluid” value in the series “clinical” (Part 2, 15 mg qd) is on record as 4.62 ng/mL. Moreover, the “mean concentration in blister fluid” value in “clinical” (Part 2, 80 mg bid) came out at 233 ng/mL. In “clinical” (human, in vivo, 30 mg), this molecule yielded a Kp at 24 h of 0.14 and a concentration at 24 h of 4.67 ng/mL. Moreover, in series [5], the “suppression of LTB4 in human skin blister fluids” value stood at 90%. The “suppression of LTB4 in blood at steady state” value in series [6] (40 mg daily dose (20 mg BID)) was “nearly complete suppression”. The “blood cell stimulated LTB4 release, reduction from baseline” value in series [6] (SAD 5 mg, at 24 hours) is 25-50%.
